Data: patent publication US20110124574A1, “RESTORATION OF ESTROGEN RECEPTOR-(ALPHA) ACTIVITY” (priority 2008, published 2011)
Where no end group is shown, it is not given here. The star is where a group is joined. For = O=C*

Experiments:
ERα = ERα protein expression by Western blot in stimulated 4T1 cells; assay type: cell-based, mouse; details: stimulation for 24 and 48 hours
Protocol: Breast cancer cells were grown in 6 well plates, and stimulated with recombinant Wnt-5a protein (rW5a), the Wnt-5a derived Foxy-5 peptide (F5), recombinant Wnt-3a protein (rW3a), or a formylated random hexapeptide (Rdm) for 24 or 48 h. Following treatment cells were lysed and subjected to SDS-PAGE, transferred to nitrocellulose membranes and blotted for ERα expression. A: MDA-MB-231 cells stimulated with recombinant Wnt-5a, Foxy-5, Wnt-3a, Rdm. B: MDA-MB-468 cells stimulated with recombinant Wnt-5a or Foxy-5. C: 4T1 cells stimulated with recombinant Wnt-5a or Foxy-5. Positive controls (Pos) were included in order to confirm the correct band size for ERα. Two different positive controls were used: T47D cell lysates known to express ERα and MDA-MB-231 cells transiently transfected with a full length ERα plasmid, resulting in extremely high ERα expression (top row, right panel, third row, right panel). […]
Cells were lysed in Triton lysis buffer (50 mM Tris (pH7.5), 1% Triton x-100, 140 mM NaCl, 0.5 mM EDTA, 0.5 MgCl2, 10 mM NaF) with the addition of fresh leupeptin (1 μg/ml), Pefabloc (2 mM), aprotinin (20 μg/ml) and Na3VO4 (4 mM). […] Scanning and densitometry was performed using a Bio-Rad (Hercules Calif.) GS-800 densitometer with Quantity One software. […]

MDA-MB-231 cells = test: MTT proliferation assay; assay type: cell-based, human; details: for growth inhibition (MTT) after tamoxifen: MDA-MB-231, stimulation 24 or 48 hours then tamoxifen 5 μM final 20 hours, compared with tamoxifen alone; for effect on breast cancer cell proliferation alone (MTT): without tamoxifen
Protocol: MDA-MB-231 cells were grown in 6 well plates and stimulated with recombinant Wnt-5a protein (rW5a) or the Wnt-5a derived Foxy-5 peptide (F5), for 24 or 48 h. Cells were treated with tamoxifen for the final 20 h and their apoptotic responses were measured via different methods. […] Arrows highlight apoptotic cells. Bars represent […]. B: Following treatment with rW5a, F5 and tamoxifen, or tamoxifen alone, cells were lysed and subjected to SDS-PAGE, transferred to nitrocellulose membranes and blotted for cleaved caspase 3. C: Treated cells were assessed for their relative caspase 3 activity using fluorometric spectrophotometry. The graph represents 6 separate experiments. * P<0.01, ** P<0.001. D: MTT assays were also performed on MDA-MB-231 cells treated with rWnt-5a, F5 and tamoxifen, or tamoxifen alone (MDA-MB-231 and MCF-7 cells) to assess cell growth inhibition. The graph represents the average of 6 separate experiments, with standard deviation represented by error bars. ** P<0.01, *** P<0.001.
Cell proliferation was measured via MTT assay (Vybrant) following manufacturers instructions. Briefly, MDA-MB-231 and MCF-7 cells were grown in 96 well plates, then either left unstimulated, or stimulated with rWnt-5a (0.6 μg/ml) or Foxy-5 peptide (100 μM) for 24 or 48 hours. Cells were then treated with 5 μM tamoxifen (Sigma) for the final 20 hours. All cells were then labeled with MTT (3-(4,5-dimethylthiazol-2-yl)-2,5-diphenyltetrazolium bromide), incubated at 37° C. for 4 hours and absorbance measured on a Biorad 680 microplate reader (Biorad). The raw absorbance was measured in 9 replicates at 570 nm, and read outs averaged and adjusted accordingly. The experiment was performed 6 times, and results averaged.

formyl-MDGCEL (For-MDGCEL; listed as Homo sapiens) [Foxy-5]
ERα levels (ERα): upregulated | growth inhibition (MTT) after tamoxifen (MDA-MB-231 cells): statistically significant growth inhibition | effect on breast cancer cell proliferation alone (MTT) (MDA-MB-231 cells): Neither rWnt-5a nor Foxy-5 had an effect

B1: recombinant Wnt-5a: recombinant Wnt-5a protein (R&D Systems) (protein, UniProt P41221 62-380, looked up)
Protein Wnt-5a: IIGAQPLCSQLAGLSQGQKKLCHLYQDHMQYIGEGAKTGIKECQYQFRHRRWNCSTVDNTSVFGRVMQIGSRETAFTYAVSAAGVVNAMSRACREGELSTCGCSRAARPKDLPRDWLWGGCGDNIDYGYRFAKEFVDARERERIHAKGSYESARILMNLHNNEAGRRTVYNLADVACKCHGVSGSCSLKTCWLQLADFRKVGDALKEKYDSAAAMRLNSRGKLVQVNSRFNSPTTQDLVYIDPSPDYCVRNESTGSLGTQGRLCNKTSEGMDGCELMCCGRGYDQFKTVQTERCHCKFHWCCYVKCKKCTEIVDQFVCK
ERα levels (ERα): upregulated | growth inhibition (MTT) after tamoxifen (MDA-MB-231 cells): statistically significant growth inhibition | effect on breast cancer cell proliferation alone (MTT) (MDA-MB-231 cells): Neither rWnt-5a nor Foxy-5 had an effect
